Results published in patent publication US20240139221A1, “TREATMENT OF HPV-INDUCED NEOPLASIA” (priority 2022, published 2024).

Tests used:
[1] = Ex vivo permeation and penetration across porcine vaginal tissue (Franz diffusion cells, IVPT); assay type: in vitro ADME; details: FIG. 116
Excerpt: (§1) FIG. 116 is an in vitro tissue permeation test in vaginal tissue comparing Compound II to ABI-1968. […] Bars B and C show the tissue penetration of a 0.1% Compound II gel in human cervical tissue. […] This may be a contributing factor to the performance of ABI-1968 in clinical studies. […] This is described in Example 41.
Freshly harvested porcine vaginal tissue was procured from local slaughterhouse in an ice box. The vaginal tissue was cut open to expose the mucosal surface and tissue was cleaned by gentle flow of PBS pH 7.4. The porcine vaginal tissue was cut into circular portions (approximately 2 cm^2) with help of a […] punch.
The circular portion of tissue was sandwiched between two chambers of a Franz diffusion cell with an active diffusion area of 1 cm^2, and the mucosal layer was exposed to the donor chambers. The resistance across porcine vaginal tissue was measured using a wave form generator to ensure the integrity of the tissue segment used for the permeation study. Porcine vaginal tissue with resistance of ≥3 KΩ·cm^2 was used for study. The receiver chamber was filled with 8 ml of 5% solutol PBS 7.4 pH, which was stirred at 600 rpm with a 3 mm magnetic stir bar and the temperature was maintained at 37° C. with a circulating water bath.
The ˜200 mg of gel was filled into tared 1 mL syringe and gel was dispensed to donor chamber. […]

physchem = details: for solubility / solubility at 0.5 h / solubility at 2 h: 37 °C, thermodynamic from solid; for pH of solution, 2 hours / Solubility 2 hours: 37° C.; for Solubility 2 hours: target 10 mg/5 mL
Experimental: About 4 mg of Compound I Pattern 1 was added into 2 mL of buffer solution.
(§2) Solubility was tested in five media, pH 3.0 citrate buffer, pH 4.5 acetate buffer, pH 6.8 phosphate buffer, water, simulated vaginal fluid (pH 4.2) at 37° C. for 0.5 h and 2 h.
The salt amount used is equivalent to 10 mg anhydrous free base. […] The obtained clear solutions were analyzed by pH meter for pH, and solubility was determined by observation.
as §2

[2] = Hygroscopicity by DVS at 25° C.; assay type: physicochemical; details: for Hygroscopicity (in words): DVS 25° C.; for XRPD after DVS test: after 40-0-95-0-40% RH cycle, 25° C.
Experimental: Hygroscopicity was investigated by DVS at 25° C., using the following method: […]

[3] = Polymorph screening by equilibration in solvents at 25° C. (crystal modification, XRPD); assay type: physicochemical
[4] = Bulk stability (accelerated stability, one week; HPLC and XRPD); details: for physical and chemical stability (in words): 25° C./92% RH open, 40° C./75% RH open, 60° C. tight container, one week; for Bulk (XRPD) / Color / Purity, Bulk (HPLC): Solid state, 1 week; for Initial HPLC purity: before storage
Experimental: Bulk stability: Accelerated stability experiments were conducted at 25° C./92% RH and 40° C./75% RH in an open container, 60° C. in a tight container for one week.
Samples were characterized by XRPD and HPLC and inspected for color change.
Accelerated stability experiments were conducted at 25° C./92% RH in an open container, at 40° C./75% RH in an open container, and at 60° C. in a tight container for one week.

[5] = In vitro tissue permeation test in human cervical tissue; assay type: in vitro ADME; details: 0.1% gel, FIG. 116
Excerpt: as §1

[6] = pH 4.2, fassgf or other biorelevant
[7] = Simulated vaginal fluid (pH adjusted by 0.1N NaOH)
[8] = cycle of 40-0-95-0-45% relative humidity
[9] = PS7, solvent IPA/heptanes (3/10, v/v)
[10] = PS8, solvent water/ACN (2.9/97.1, v/v)
[11] = PS9, solvent IPA/MTBE (1/3, v/v)
[12] = PS10, solvent EA/toluene (1/3, v/v)

## CCCCCCCCCCCCCCCCCCOCCOP(=O)(O)COCCn1cnc2c(=O)[nH]c(N)nc21 [ABI-1968, reference compound]
[1]
  tissue penetration (in words): substantially smaller degree

## CCOC(=O)[C@H](C)N[P@](=O)(COCCn1cnc2c(OC)nc(N)nc21)OCc1ccccc1 (single isomer, unassigned) [Compound III, monofumarate]
physchem; aqueous buffer
  solubility: > 2000 µg/mL
physchem; pH 3, aqueous buffer
  solubility: > 2000 µg/mL
physchem; [6]
  solubility: > 2000 µg/mL
physchem; pH 4.5, aqueous buffer
  solubility: > 2000 µg/mL
physchem; pH 6.8, aqueous buffer
  solubility: > 2000 µg/mL
physchem; water
  solubility: > 2000 µg/mL
physchem; [7]
  pH of solution, 2 hours: 5.37
  Solubility 2 hours: > 2000 µg/mL
physchem; Water
  pH of solution, 2 hours: 2.78
  Solubility 2 hours: > 2000 µg/mL
physchem; pH 3.0, 100 mM citrate buffer
  pH of solution, 2 hours: 2.83
  Solubility 2 hours: > 2000 µg/mL
physchem; pH 4.5, 50 mM acetate buffer
  pH of solution, 2 hours: 4.12
  Solubility 2 hours: > 2000 µg/mL
physchem; pH 6.8, 50 mM phosphate buffer
  pH of solution, 2 hours: 6.44
  Solubility 2 hours: > 2000 µg/mL
[2]
  Hygroscopicity (in words): slightly hygroscopic
  XRPD after DVS test: No form change
[2]; [8]
  XRPD pattern after humidity cycle: lose one of the peaks
  increase in retained water content versus Compound II: 40 fold
[3]; PS1, solvent IPA
  Crystal modification after 1 week equilibration at 25° C.: Compound V Pattern 2
[3]; PS2, solvent Heptanes
  Crystal modification after 1 week equilibration at 25° C.: Compound III Pattern 2
[3]; PS3, solvent Water
  Crystal modification after 1 week equilibration at 25° C.: Compound III Pattern 3
[3]; PS4, solvent ACN
  Crystal modification after 1 week equilibration at 25° C.: Compound III Pattern 4
[3]; PS5, solvent MEK
  Crystal modification after 1 week equilibration at 25° C.: Compound III Pattern 5
[3]; [9]
  Crystal modification after 1 week equilibration at 25° C.: Compound III Pattern 2
[3]; [10]
  Crystal modification after 1 week equilibration at 25° C.: Compound III Pattern 4
[3]; [11]
  Crystal modification after 1 week equilibration at 25° C.: Compound III Pattern 6
[3]; [12]
  Crystal modification after 1 week equilibration at 25° C.: Compound III Pattern 2
[4]
  physical and chemical stability (in words): good physical stability
  Initial HPLC purity: 98.8%
[4]; 25° C./92% RH, open container
  Bulk (XRPD): No form change
  Color: No change
  Purity, Bulk (HPLC): 98.7%
[4]; 40° C./75% RH, open container
  Bulk (XRPD): No form change (One
  Color: No change
  Purity, Bulk (HPLC): 97.2%
[4]; 60° C., tight container
  Bulk (XRPD): No form change (One
  Color: No change
  Purity, Bulk (HPLC): 97.3%

## CCOC(=O)[C@H](C)N[P@@](=O)(COCCn1cnc2c(OC)nc(N)nc21)OCc1ccccc1.O=C(O)/C=C/C(=O)O [Compound II]
physchem; aqueous buffer
  solubility: > 2000 µg/mL
physchem; pH 3, aqueous buffer
  solubility at 0.5 h: > 2000 µg/mL
  solubility at 2 h: > 2000 µg/mL
physchem; [6]
  solubility at 0.5 h: > 2000 µg/mL
  solubility at 2 h: > 2000 µg/mL
physchem; pH 4.5, aqueous buffer
  solubility at 0.5 h: > 2000 µg/mL
  solubility at 2 h: > 2000 µg/mL
physchem; pH 6.8, aqueous buffer
  solubility at 0.5 h: > 2000 µg/mL
  solubility at 2 h: > 2000 µg/mL
physchem; water
  solubility at 0.5 h: > 2000 µg/mL
  solubility at 2 h: > 2000 µg/mL
physchem; [7]
  pH of solution, 2 hours: (5.79)
physchem; Water
  pH of solution, 2 hours: (2.87)
physchem; pH 3.0, 100 mM citrate buffer
  pH of solution, 2 hours: (2.85)
physchem; pH 4.5, 50 mM acetate buffer
  pH of solution, 2 hours: (4.2)
physchem; pH 6.8, 50 mM phosphate buffer
  pH of solution, 2 hours: (6.47)
[2]
  Hygroscopicity (in words): slightly hygroscopic
  XRPD after DVS test: No form change
[2]; [8]
  XRPD pattern after humidity cycle: does not change
[1]
  tissue penetration (in words): high tissue penetration
[5]
  tissue penetration (in words): high tissue penetration
[3]; PS1, solvent IPA
  Crystal modification after 1 week equilibration at 25° C.: Compound II Pattern 1
[3]; PS2, solvent Heptanes
  Crystal modification after 1 week equilibration at 25° C.: Compound II Pattern 1
[3]; PS3, solvent Water
  Crystal modification after 1 week equilibration at 25° C.: Compound II Pattern 1
[3]; PS4, solvent ACN
  Crystal modification after 1 week equilibration at 25° C.: Compound II Pattern 2
[3]; PS5, solvent MEK
  Crystal modification after 1 week equilibration at 25° C.: Compound II Pattern 3
[3]; PS6, solvent Acetone
  Crystal modification after 1 week equilibration at 25° C.: Compound II Pattern 1
[3]; [9]
  Crystal modification after 1 week equilibration at 25° C.: Compound II Pattern 1
[3]; [10]
  Crystal modification after 1 week equilibration at 25° C.: Compound II Pattern 2
[3]; [11]
  Crystal modification after 1 week equilibration at 25° C.: Compound II Pattern 1
[3]; [12]
  Crystal modification after 1 week equilibration at 25° C.: Compound II Pattern 1
[4]
  physical and chemical stability (in words): good physical and chemical stability
  Initial HPLC purity: 99.7%
[4]; 25° C./92% RH, open container
  Bulk (XRPD): No form change
  Color: No change
  Purity, Bulk (HPLC): 99.5%
[4]; 40° C./75% RH, open container
  Bulk (XRPD): No form change
  Color: No change
  Purity, Bulk (HPLC): 99.4%
[4]; 60° C., tight container
  Bulk (XRPD): No form change
  Color: No change
  Purity, Bulk (HPLC): 99.7%
